In US9273057B2 (Bristol-Myers Squibb Company, priority 2012, dated 2016):

target: CK2A1 (CK2α/β) (Homo sapiens, UniProt P68400); experiment: CK2 kinase assay, CK2A1 (CK2α/β); format: biochemical; conditions: Table A; read-out: CK2A1 (CK2α/β) (IC50)
Sequence (P68400 whole entry, species assumed): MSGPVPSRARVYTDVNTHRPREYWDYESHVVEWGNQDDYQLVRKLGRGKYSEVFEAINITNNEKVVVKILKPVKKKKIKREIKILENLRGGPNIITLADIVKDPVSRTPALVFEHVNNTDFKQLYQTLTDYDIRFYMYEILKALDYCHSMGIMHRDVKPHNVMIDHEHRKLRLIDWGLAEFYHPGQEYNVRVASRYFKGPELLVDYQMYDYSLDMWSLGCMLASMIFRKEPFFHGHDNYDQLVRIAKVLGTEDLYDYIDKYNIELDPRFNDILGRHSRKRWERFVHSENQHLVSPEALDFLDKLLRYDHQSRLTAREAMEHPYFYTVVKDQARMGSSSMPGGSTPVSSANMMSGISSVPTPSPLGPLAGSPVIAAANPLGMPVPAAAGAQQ
Sequence (P67870 whole entry partner, species assumed): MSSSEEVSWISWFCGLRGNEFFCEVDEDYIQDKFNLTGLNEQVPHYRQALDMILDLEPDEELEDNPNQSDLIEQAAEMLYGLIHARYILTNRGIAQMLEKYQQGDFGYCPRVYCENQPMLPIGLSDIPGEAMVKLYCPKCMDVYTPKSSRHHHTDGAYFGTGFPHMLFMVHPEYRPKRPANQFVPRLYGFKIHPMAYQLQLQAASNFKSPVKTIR

SMILES	IC50 [nM]
N#Cc1cc(Nc2nc(NC3CC3)c3ncc(C#N)n3n2)c(Cl)c(N2CC(N3CCC(O)C3)C2)c1 (racemic) [Example 159, (+/−) 2-((2-chloro-5-cyano-3-(3-(3-hydroxy-1-pyrrolidinyl)-1-azetidinyl)phenyl)amino)-4-(cyclopropylamino)imidazo [2,1-f][1,2,4]triazine-7-carbonitrile]	0.48
[2H]C1(N2CCC(c3cc(C#N)cc(Nc4nc(NCC)c5ncc(C#N)n5n4)c3Cl)CC2)COC1 [Example 350, 2-((2-chloro-5-cyano-3-(1-(3-~2~H)-3-oxetanyl-4-piperidinyl)phenyl)amino)-4-(ethylamino)imidazo[2,1-f][1,2,4]triazine-7-carbonitrile]	1.74
CCNc1nc(Nc2cc(C#N)cc(N3CC[C@@H]4[C@@H](C3)OCCN4C(=O)OC)c2Cl)nn2c(C#N)cnc12 (racemic) [Example 372, (+/−)-(4aR,8aR)-methyl 6-(2-chloro-5-cyano-3-((7-cyano-4-(ethylamino)imidazo[2,1-f][1,2,4]triazin-2-yl)amino)phenyl)octahydro-1H-pyrido[3,4-b][1,4]oxazine-1-carboxylate]	0.94
N#Cc1cc(Nc2nc(NC3CC3)c3ncc(C#N)n3n2)c(Cl)c(C(F)C2CCNCC2)c1 (centres unmarked) [Example 662, 2-((2-chloro-5-cyano-3-(fluoro(piperidin-4-yl)methyl)phenyl)amino)-4-(cyclopropylamino)imidazo[2,1-f][1,2,4]triazine-7-carbonitrile]	0.48
CC(C)(N)CC(=O)N1CC(N2CCN(c3cc(C#N)cc(Nc4nc(NC5CC5)c5ncc(C#N)n5n4)c3Cl)CC2)C1 [Example 501, 2-[(3-{4-[1-(3-amino-3-methylbutanoyl)azetidin-3-yl]piperazin-1-yl}-2-chloro-5-cyanophenyl)amino]-4-(cyclopropylamino)imidazo[2,1-f][1,2,4]triazine-7-carbonitrile]	2.64
N#Cc1cc(CN2CCNCC2)c(Cl)c(Nc2nc(NC3CC3)c3ncc(C#N)n3n2)c1 [Example 668, 2-((2-chloro-5-cyano-3-(piperazin-1-ylmethyl)phenyl)amino)-4-(cyclopropylamino)imidazo[2,1-f][1,2,4]triazine-7-carbonitrile]	0.76
CC(=O)NCC(=O)N1CC(N2CCN(c3cc(C#N)cc(Nc4nc(NC5CC5)c5ncc(C#N)n5n4)c3Cl)CC2)C1 [Example 492, N-(2-{3-[4-(2-chloro-5-cyano-3-{[7-cyano-4-(cyclopropylamino)imidazo[2,1-f][1,2,4]triazin-2-yl]amino}phenyl)piperazin-1-yl]azetidin-1-yl}-2-oxoethyl)acetamide]	0.64
N#Cc1cc(Nc2nc(NC3CC3)c3ncc(C#N)n3n2)c(Cl)c(N2CCN(C3(CCO)COC3)CC2)c1 [Example 537, 2-((2-chloro-5-cyano-3-(4-(3-(2-hydroxyethyl)oxetan-3-yl)piperazin-1-yl)phenyl)amino)-4-(cyclopropylamino)imidazo[2,1-f][1,2,4]triazine-7-carbonitrile]	1.04
N#Cc1cc(NCCO)c(Cl)c(Nc2nc(NC3CC3)c3ncc(C#N)n3n2)c1 [Example 615, 2-((2-chloro-5-cyano-3-((2-hydroxyethyl)amino)phenyl)amino)-4-(cyclopropylamino)imidazo[2,1-f][1,2,4]triazine-7-carbonitrile]	0.18
CC(c1cc(C#N)cc(Nc2nc(NC3CC3)c3ncc(C#N)n3n2)c1Cl)N1CCN(S(C)(=O)=O)CC1 (racemic) [Example 678]	1.87
CC(O)CN1CCC2CCN(c3cc(C#N)cc(Nc4nc(NC5CC5)c5ncc(C#N)n5n4)c3Cl)CC21 (racemic) [Example 460, (+/−)-2-((2-chloro-5-cyano-3-(1-(2-hydroxypropyl)hexahydro-1H-pyrrolo[2,3-c]pyridin-6(2H)-yl)phenyl)amino)-4-(cyclopropylamino)imidazo[2,1-f][1,2,4]triazine-7-carbonitrile]	1.62
CC1(C(=O)N2CCN(c3cc(C(F)F)cc(Nc4nc(NC5CC5)c5ncc(C#N)n5n4)c3Cl)CC2)COC1 [Example 273, 2-((2-chloro-5-(difluoromethyl)-3-(4-((3-methyl-3-oxetanyl)carbonyl)-1-piperazinyl)phenyl)amino)-4-(cyclopropylamino)imidazo[2,1-f][1,2,4]triazine-7-carbonitrile]	2.11
CCNc1nc(Nc2cc(C#N)cc(N3CC[C@@H](NC(=O)OC)[C@H](OC(=O)CCCOP(=O)(O)O)C3)c2Cl)nn2c(C#N)cnc12 [Example 343, (3R,4R)-1-(2-chloro-5-cyano-3-((7-cyano-4-(ethylamino)imidazo[2,1-f][1,2,4]triazin-2-yl)amino)phenyl)-4-((methoxycarbonyl)amino)piperidin-3-yl 4-(phosphonooxy)butanoate]	3
N#Cc1cc(Nc2nc(NC3CC3)c3ncc(C#N)n3n2)c(Cl)c(N2CCN(C3CNC3)CC2)c1 [Example 612, 2-({3-[4-(azetidin-3-yl)piperazin-1-yl]-2-chloro-5-cyanophenyl}amino)-4-(cyclopropylamino)imidazo [2,1-f][1,2,4]triazine-7-carbonitrile]	0.43
CC1(C(O)c2cc(C#N)cc(Nc3nc(NC4CC4)c4ncc(C#N)n4n3)c2Cl)COC1 (centres unmarked) [Example 657, 2-((2-chloro-5-cyano-3-(hydroxy(3-methyloxetan-3-yl)methyl)phenyl)amino)-4-(cyclopropylamino)imidazo[2,1-f][1,2,4]triazine-7-carbonitrile]	4.2
CC(=O)N1CC(N2CCC(c3cc(C#N)cc(Nc4nc(NC5CC5)c5ncc(C#N)n5n4)c3F)CC2)C1 [Example 637, 2-((3-(1-(1-acetylazetidin-3-yl)piperidin-4-yl)-2-fluoro-5-cyanophenyl)amino)-4-(cyclopropylamino)imidazo[2,1-f][1,2,4]triazine-7-carbonitrile]	4.79
COC[C@H](NC[C@H]1CN(c2cc(C#N)cc(Nc3nc(NC4CC4)c4ncc(C#N)n4n3)c2Cl)CCO1)C1CC1 [Example 704, 2-({2-chloro-5-cyano-3-[(2S)-2-({[(1R)-1-cyclopropyl-2-methoxyethyl]amino}methyl)morpholin-4-yl]phenyl}amino)-4-(cyclopropylamino)imidazo[2,1-f][1,2,4]triazine-7-carbonitrile]	1.4
C[C@@H]1OCC[C@@H]1NC1CCN(c2cc(C#N)cc(Nc3nc(NC4CC4)c4ncc(C#N)n4n3)c2Cl)CC1 (racemic) [Example 123, (+/−) 2-((2-chloro-5-cyano-3-(4-(((2S,3S)-2-methyltetrahydro-3-furanyl)amino)-1-piperidinyl)phenyl)amino)-4-(cyclopropylamino)imidazo [2,1-f][1,2,4]triazine-7-carbonitrile]	0.55
N#Cc1cc(CN2CCCC3(COC3)C2)c(Cl)c(Nc2nc(NC3CC3)c3ncc(C#N)n3n2)c1 [Example 463, 2-((3-(2-oxa-6-azaspiro[3.5]nonan-6-ylmethyl)-2-chloro-5-cyanophenyl)amino)-4-(cyclopropylamino)imidazo[2,1-f][1,2,4]triazine-7-carbonitrile]	1
CN1CCC2(CCN(c3cc(C#N)cc(Nc4nc(NC5CC5)c5ncc(C#N)n5n4)c3Cl)CC2)C1 (racemic) [Example 27, (+/−) 2-((2-chloro-5-cyano-3-(2-methyl-2,8-diazaspiro[4.5]dec-8-yl)phenyl)amino)-4-(cyclopropylamino)imidazo [2,1-f][1,2,4]triazine-7-carbonitrile]	0.87
